The results in this text go back to patent US20190291112A1, “DROPLET MICROFLUIDICS FOR DRUG SCREENING” (University of Macau, priority 2018, published 2019).

Series [1] has as its system Jurkat cells. As to the kind of experiment: 96-well microtiter plate drug screening assay (Alamar Blue). The settings on record: 96-well plate. The format is cell-based, human. How it is done: (§1) Jurkat E6.1 cells (ATCC® TIB-152™) and MDA-MB-231 cells (ATCC® HTB-26™) were used as models for suspended and adherent cancer cell lines respectively. Jurkat cell line was derived from human acute T cell leukemia, whereas MDA-MB-231 cell line was derived from human metastatic breast adenocarcinoma.
(§2) Microtiter plate drug screening assays were carried out on 96-well clear round flat-bottom plates (Corning, USA) or 384-well white square flat-bottom plates (Corning, USA).
(§3) First, 5.0×10^5 or 1.0×10^5 cells were seeded per well for 96-well and 384-well plates respectively. Drugs were diluted with Dulbecco's phosphate-buffered saline (DPBS) (Life Technologies, USA), and subsequently added to achieve final drug concentrations as indicated on the graphs. Afterwards, the plates were transferred to humidified incubator at 37° C. supplemented with 5% CO2 for 16-24 h incubation. Finally, Alamar Blue assay was used to measure cell viability. Fluorescence intensity (Ex. 560 nm, Em. 590 nm) using auto-cutoff was measured from bottom on plate reader (Molecular Devices SpectraMax MS Plate Reader, USA). Cells treated with 0.1% dimethyl sulfoxide (DMSO) were used as negative control, while no cells were added to blank control. All experiments were performed in triplicate for 96-well plates and in quadruplicates for 384-well relates.
(§4) For microliter plate assays, average relative fluorescence signal measured by plate reader from 6 reads of each well was used as raw data point. Cell viability was calculated as follows: […]
(§5) where Sample represented raw data points of each sample well, whereas DMSO control and Blank represented average raw data points of all DMSO control and Blank wells, respectively.

Series [2] relates to MDA-MB-231 cells. The series is described as above. The settings on record: 96-well plate. Format: cell-based, human. The procedure:
as §1, §2, §3, §4, §5

The test system of series [3] is Jurkat cells. The experiment in a line: 384-well microtiter plate drug screening assay (Alamar Blue). The format is cell-based, human. The settings on record: 384-well plate. How it is done:
as §1, §2, §3, §4, §5

Series [4] deals with MDA-MB-231 cells. The description is as above. The format is cell-based, human. The conditions noted are these: 384-well plate. How it is done: as §1, §2, §3, §4, §5
Series [5] has as its system Jurkat cells. As to the kind of experiment: On chip drug screening assay (ethidium homodimer 1 staining). The format is cell-based, human. How it is done: Jurkat E6.1 cells (ATCC® TIB-152™) and MDA-MB-231 cells (ATCC® HTB-26™) were used as models for suspended and adherent cancer cell lines respectively. Jurkat cell line was derived from human acute T cell leukemia, whereas MDA-MB-231 cell line was derived from human metastatic breast adenocarcinoma. On chip drug screening was performed using the PDMS-based microfluidic chip as described above. A 500 μL glass syringe (Hamilton, USA) and polytetrafluoroethylene (PTFE) tubings with appropriate bore (Cole Parmer, USA) was used to connect between the syringe pump (Harvard Apparatus PHD Ultra Syringe Pump, USA) and the microfluidic chip. Fluorinert® FC-40 (Sigma-Aldrich, USA) supplemented with 2% 008-Fluorosurfactant (Ran Biotechnologies, USA) was used as oil phase; relevant cell culture medium, supplemented with 1% (w/v) methyl cellulose (Sigma-Aldrich, USA) was used as aqueous phase. Cells treated with 0.1% dimethyl sulfoxide (DMSO) were used as negative control. […] Next, […], cell-drug mixtures were loaded into the tubing, consecutively segregated by oil phase at withdrawal rate of 200 μL/h by syringe pump. After loading all mixtures, the tubing was inserted into the microfluidic chip, which was back-flushed with oil phase at 500 μL/h by syringe pump. After that, the mixtures were infused at 25 μL/h by syringe pump. Finally, the inlet and outlet tubings were cut and sealed with Vaseline (Vaseline, USA). […] Brightfield and red fluorescence images (Ex. 531/40 nm, Em. 593/40 nm) were taken under 10× magnification (Life Technologies EVOS FL Imaging System, USA). […] For on chip assays, the number of cells was counted in brightfield and red fluorescence images from each well respectively.

Series [6] deals with MDA-MB-231 cells. The description is as above. The format is cell-based, human. The settings on record: for IC50: Homo sapiens. How it is done:
as §1
On chip drug screening was performed using the PDMS-based microfluidic chip as described above. A 500 μL glass syringe (Hamilton, USA) and polytetrafluoroethylene (PTFE) tubings with appropriate bore (Cole Parmer, USA) was used to connect between the syringe pump (Harvard Apparatus PHD Ultra Syringe Pump, USA) and the microfluidic chip. Fluorinert® FC-40 (Sigma-Aldrich, USA) supplemented with 2% 008-Fluorosurfactant (Ran Biotechnologies, USA) was used as oil phase; relevant cell culture medium, supplemented with 1% (w/v) methyl cellulose (Sigma-Aldrich, USA) was used as aqueous phase. Cells treated with 0.1% dimethyl sulfoxide (DMSO) were used as negative control.
Briefly, cells at final concentrations of 1-2×10^6 cells per mL were aliquoted in 0.2 mL PCR tubes, then mixed with corresponding drugs and 2 μM ethidium homodimer 1 (Life Technologies, USA) by manual pipetting. Next, […], cell-drug mixtures were loaded into the tubing, consecutively segregated by oil phase at withdrawal rate of 200 μL/h by syringe pump. After loading all mixtures, the tubing was inserted into the microfluidic chip, which was back-flushed with oil phase at 500 μL/h by syringe pump. After that, the mixtures were infused at 25 μL/h by syringe pump. Finally, the inlet and outlet tubings were cut and sealed with Vaseline (Vaseline, USA). The chips were placed in 150 mm cell culture dish (Coming, USA) containing wet paper towels, and transferred to humidified incubator at 37° C. supplemented with 5% CO2 for 16-24 h incubation. Brightfield and red fluorescence images (Ex. 531/40 nm, Em. 593/40 nm) were taken under 10× magnification (Life Technologies EVOS FL Imaging System, USA).
For on chip assays, brightfield and red fluorescence images were initially processed by ImageJ v.1.50i, Cell counting was either performed manually or by Matlab v.R201.5a based on the workflow shown on FIG. 5B. Briefly, cells from brightfield and red fluorescence images were detected separately using a heuristic Hough Transformation model based on threshold implementation on circular diameter and pixel intensity. Next, each recognized cell was dissected into 10×10 pixels matrix for analysis of its pixel intensity. Subsequently, two layers of multi-radii analysis of pixel intensity around the center of each matrix distinguished signal from noise. Afterwards, cells were distinguished from noise based on the brightfield image, whereas cell viability was determined by signal intensity of corresponding red fluorescence image. Finally, positional information (defined by row: x, and column: y) and size (defined by radius: r) of discrete image matrix was used to classify each cell as “live” or “dead”. The total number of cells in each image corresponding to each droplet formation well on chip was summarized as a table in CSV format for calculation of cell viability. […]
For on chip assays, the number of cells was counted in brightfield and red fluorescence images from each well respectively. Cell viability was calculated as follows: […]
where Total cells and Dead cells referred to the total number of cells counted from brightfield and red fluorescence images, respectively. […]

In series [7] the test system is cancer cell lines. The experiment in a line: Carrier fluid and surfactant optimization, cell viability on chip. The format is cell-based. The settings on record: surfactant, all tested concentrations. An excerpt:
Firstly, we optimized the carrier fluid or oil phase to assure cell viability on chip for a minimum of 7 days for cancer cell lines. Commercial oils including Fluorinert® series oils, e.g. fluorocarbon oils, silicone oil, and mineral oil in combination with different surfactants (either mixed with oil phase or aqueous phase) at various concentrations have been tested. Among these, Fluorinert® FC-40 supplemented with 2% 008-Fluorosurfactant by Ran Biotechnologies provided optimal properties in terms of viscosity, volatility and droplet stability. Fluorosurfactant was added to prevent droplets from coalescence and cross-contamination of droplet contents when they touched each other (FIG. 6A). In addition, fluorosurfactant-emulsified droplets prevented fluorescent dye from adsorbing to the hydrophobic PDMS walls of the channel (FIG. 6B) or migrating into the oil phase (FIGS. 6C and 6D), in order to maintain constant drug concentrations in droplets. […] Droplets containing red fluorescent dye were incubated at 37° C. for 15 h, but no trace of fluorescent dye was observed along the PDMS walls as the droplet shrank due to evaporation. […]

The test system of series [8] is cells. The experiment in a line: Time-lapse imaging of cells incubated with viability indicator dye. The format is cell-based. The conditions noted are these: 2 μM, within 48 h post-treatment. The procedure: Thirdly, different cell viability indicator dyes were tested for staining efficiency, indicator reliability and cytotoxicity on chip. Since the sample fluid was premixed before loading to the chip, we tested for different cell viability indicator dyes and variant concentrations to ensure that the indicator dye had no impact on cell viability, at least within the time frame of the drug susceptibility test. Eventually, ethidium homodimer 1 staining was adopted to indicate dead cells. Ethidium homodimer 1 is a cell-impermeable, high affinity nucleic acid stain emitting strong red fluorescence after binding to DNA. It gave strong red fluorescence after cells were treated with drug but not DMSO) (FIG. 12).

As to `COc1cccc2c1C(=O)c1c(O)c3c(c(O)c1C2=O)C[C@@](O)(C(=O)CO)C[C@@H]3O[C@H]1C[C@H](N)[C@@H](O)[C@H](C)O1` [epirubicin], the 50% inhibitory concentration (IC50) in series [1] (Homo sapiens, 16-24 h) is 1000 to 2200 nM; in series [2] (Homo sapiens), 600 nM; in series [3] (Homo sapiens, 16-24 h), 1000 to 2200 nM; in series [4] (Homo sapiens) it was 500 nM; in series [5] (Homo sapiens, 16-24 h) it was 1000 to 2200 nM; in series [6], 5.5 µM. In addition, in series [6] (after reaching IC50), the “cell viability leveled off” value was “approximately 50%”.

As to `CCCCCCCCCCCCOS(=O)(=O)[O-].[Na+]` [sodium dodecyl sulfate], in series [7], the “effect on cell viability” value was “compromised cell viability”.

In the case of `O=C(CCCCCCC(=O)Nc1ccccc1)NO` [vorinostat], the cell viability plateau entry in series [1] (all doses tested), in series [2], in series [3] (all doses tested), in series [4] and in series [5] (all doses tested) was “above 50%” each time. Besides, in series [6], the IC50 is 33.3 µM.

On to Triton X-100, for which, in series [7], the “effect on cell viability” value was “compromised cell viability”.

Turning to ethidium homodimer 1, in series [8], the “effect on cell death and proliferation” value was “did not affect cell death and proliferation”.
